Results on 2 substances are retold here after patent US9388216B2, “Methods of treating reproductive cancer” (Medical Research Council, priority 2006, dated 2016).

In test [1] the test system is HEK293/rGnRHR cells. The experiment in a line: Cell growth inhibition (viable cell number after 5 days of continuous treatment) in HEK293/rGnRHR cells. The test is classed as cell-based, rat. The note with it: rat receptor. The procedure:
(§1) For the first method, HEK293 cells expressing various GnRH receptor constructs were seeded into 12-well PLL-coated plates at 50,000 cells (in 1 ml)/well and cultured with continuous GnRH exposure for five days, adding fresh peptide every day. Trypan Blue-excluding cells were then counted with a haemocytometer. For the second method, cells were seeded into 96-well plates at 5,000 cells (in 100 μl)/well and treated exactly as described before. 10 μl WST-1 reagent (Roche Diagnostics Ltd.; Lewes, East Sussex, UK) was added directly to each well and, after 3 h at 37° C., absorbance was read at 450 nm (with a reference at 690 nm) against a background control as blank using a microplate ELISA reader.
(§2) Bar graphs and curves were obtained using Prism 3.0 (GraphPad Software, Inc.: San Diego, Calif., USA). IC50 and EC50 values were determined by non-linear regression analysis. Curves were best-fitted to a one-site model. […] Values were normalised as specified in the figure legends.
(§3) Antiproliferation/apoptosis was estimated by determining cell number after five days of continuous exposure to the peptides. In parallel, this response was compared to the classical Gq coupled-PLCβ activation induced by GnRH peptides, as measured by the very well characterized inositol phosphates accumulation protocol. Both outputs were determined in two HEK293 cell lines; one expressing the rat receptor and the other expressing the human receptor. The human cell line was included in the study because this species may be clinically more relevant and the very low receptor expression may better reflect the in vivo tumoural state. In fact, due to poor binding, the precise affinity of the analogues on this cell line could not be determined.

A further test deals with HEK293/hGnRHR cells. As to the kind of experiment: Cell growth inhibition (viable cell number after 5 days of continuous treatment) in HEK293/hGnRHR cells. Type of test: cell-based, human. The note with it: human receptor. The procedure:
as §1, §2, §3

Test [2] deals with HEK293/rGnRHR cells. As to the kind of experiment: Thymidine incorporation assay. Type of test: cell-based, rat. The note with it: 100 nM, continuous treatment, over 96 h. The procedure: Medium of cells growing on 24-well PLL-coated plates was removed and 0.5 μCi [3H]thymidine (Amersham) in complete fresh medium was added to each well. After an overnight incubation, the medium was removed, the cells washed three times with 1 ml PBS and left for […] at room temperature in 0.5 ml 0.1 N NaOH. The extract was then transferred to a scintillation vial, 2 ml of Optiphase “HiSafe 3” cocktail (PerkinElmer) added and 3H counts measured in a liquid scintillation 1450 Wallac MicroBeta® TriLux counter.
(§4) We investigated whether the growth suppression caused by GnRH on HEK293 cells expressing the rat receptor was due to an inhibition of cell proliferation or an induction of apoptosis. On the one hand, we used radioactive thymidine incorporation into the genome to track cell proliferation over a period of 96 h. […] On the other hand, we measured apoptosis by monitoring cleavage of poly[ADP-ribose]polymerase (PARP), a substrate of caspase 3. […] The increase of cleaved PARP in the cytoplasm was proportional to the increase of cleaved PARP in the nucleus (data not shown), so we routinely only examined clarified whole-cell lysates for technical ease.

In test [3] the test system is PARP cleavage in HEK293/rGnRHR cells. As to the kind of experiment: Time-course of PARP cleavage (apoptosis), western blot. The test is classed as cell-based, rat. The note with it: 100 nM. The procedure: as §4
For orientation: A western blot detects proteins with antibodies after separation by electrophoresis.

Test [4] has as its system Gi coupling of GnRHR (FSK-stimulated cAMP). The experiment in a line: Inhibition of FSK-stimulated cAMP in HEK293/rGnRHR cells. The note with it: unpublished results. The test is classed as cell-based, rat. The text has this:
However, we agree with the general view that PLC, representing the classical Gq-initiated pituitary signalling pathway, is not a relevant component of the apoptotic cascade.

For the next test, the target named is T1, rat GnRH receptor (Rattus norvegicus, UniProt P30969).
T1 construct: expressed in transfected cells
T1 sequence (P30969 1-327): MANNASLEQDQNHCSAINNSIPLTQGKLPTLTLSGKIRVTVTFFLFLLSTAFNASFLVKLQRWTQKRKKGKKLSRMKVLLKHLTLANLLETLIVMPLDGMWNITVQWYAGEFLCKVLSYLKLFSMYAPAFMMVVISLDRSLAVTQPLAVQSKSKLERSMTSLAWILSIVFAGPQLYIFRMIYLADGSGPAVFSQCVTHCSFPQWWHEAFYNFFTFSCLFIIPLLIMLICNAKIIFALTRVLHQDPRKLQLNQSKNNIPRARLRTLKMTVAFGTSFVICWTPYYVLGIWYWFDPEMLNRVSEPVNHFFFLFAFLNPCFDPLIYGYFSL
The experiment in a line: Accumulation of total inositol phosphates (PLCβ activation) in HEK293/rGnRHR cells. Type of test: cell-based. The procedure:
HEK293 cells stably expressing the GnRH receptor growing on 12-well PLL-coated plates were pre-labelled with 1 μCi/ml myo-[H3]inositol (Amersham) in inositol-free DMEM (Sigma) for 48 h. On the day of the experiment, cells were washed with assay buffer (140 mM NaCl, 20 mM HEPES, 8 mM glucose, 4 mM KCl, 1 mM MgCl2, 1 mM CaCl2, 1 mg/ml BSA), pre-incubated with 10 mM LiCl (in assay buffer) for 30 min, and stimulated with different concentrations of the peptides (in the same buffer) for 1 h at 37° C. Incubations were terminated by removing the culture medium and lysing the cells in ice cold 10 mM formic acid for 30 min. Inositol phosphates were extracted by chromatography with an anion exchange resin (AG® 1-X8, Bio-Rad) using 1 M ammonium formate and 0.1 M formic acid. Liquid scintillant was added to the final eluate and [3H]inositol phosphates were measured in the β-counter.
as §2

For test [5], the system named is HEK293 cells expressing human GnRHR with catfish GnRHR tail or rat GnRHR with TRHR tail. The experiment in a line: Cell growth after five days of GnRH I in HEK293 cells expressing tailed chimeric receptors. The note with it: five days of continuous treatment. The test is classed as cell-based. The procedure: Trypan Blue-excluding cells were then counted with a haemocytometer. For the second method, cells were seeded into 96-well plates at 5,000 cells (in 100 μl)/well and treated exactly as described before. 10 μl WST-1 reagent (Roche Diagnostics Ltd.; Lewes, East Sussex, UK) was added directly to each well and, after 3 h at 37° C., absorbance was read at 450 nm (with a reference at 690 nm) against a background control as blank using a microplate ELISA reader. To the best of our knowledge, the ability to inhibit the growth of cells expressing its cognate receptor is a property only clearly described for GnRH, Since the type I GnRH receptor (GnRHR) is the only G protein-coupled receptor lacking an intracellular C-terminal tail, we hypothesized that the cell growth suppression ability of GnRH was conferred by this unique feature of the GnRHR. […] We were unable to detect growth suppression of wild-type HEK293 cells, which endogenously express adrenergic, LPA and endothelin receptors, treated with their corresponding agonists (data not shown). The expression of all receptors mentioned was confirmed by binding assays or western blotting (data not shown).

The subject of test [6] is HEK293 cells over-expressing the catfish GnRHR or the TRHR. The experiment in a line: Cell growth in HEK293 cells over-expressing the catfish GnRHR or the TRHR. The note with it: data not shown. Type of test: cell-based. The procedure: as §1
To the best of our knowledge, the ability to inhibit the growth of cells expressing its cognate receptor is a property only clearly described for GnRH, Since the type I GnRH receptor (GnRHR) is the only G protein-coupled receptor lacking an intracellular C-terminal tail, we hypothesized that the cell growth suppression ability of GnRH was conferred by this unique feature of the GnRHR. […] We were unable to detect growth suppression of wild-type HEK293 cells, which endogenously express adrenergic, LPA and endothelin receptors, treated with their corresponding agonists (data not shown). The expression of all receptors mentioned was confirmed by binding assays or western blotting (data not shown).

Test [7] concerns ERK1/2 phosphorylation in HEK293 cells expressing rat GnRHR or rat GnRHR/TRHR chimera. As to the kind of experiment: ERK activation profile, western blot with anti-phosphorylated ERK1/2. The test is classed as cell-based. The note with it: 100 nM, rat GnRHR versus rat GnRHR/TRHR chimera. From the text: We decided to investigate if this lack of rapid desensitisation holds true for other responses that may be more pertinent for the antiproliferative/apoptotic properties of GnRH.

For “pGlu-His-Trp-Ser-His-Gly-Trp-Tyr-Pro-Gly.NH2 (EHWSHGWYPG; HELM PEPTIDE1{[Glp].H.W.S.H.G.W.Y.P.G.[am]}$$$$V2.0; SMILES NC(=O)CNC(=O)[C@@H]1CCCN1C(=O)[C@H](Cc1ccc(O)cc1)NC(=O)[C@H](Cc1c[nH]c2ccccc12)NC(=O)CNC(=O)[C@H](Cc1c[nH]cn1)NC(=O)[C@H](CO)NC(=O)[C@H](Cc1c[nH]c2ccccc12)NC(=O)[C@H](Cc1c[nH]cn1)NC(=O)[C@@H]1CCC(=O)N1) [GnRH II, human gonadotropin-releasing hormone II, purchased from Sigma-Aldrich]”, the results for the “fold more potent than GnRH I to induce cell death / inhibit cell growth” value with HEK293/rGnRHR cells [1] and in the test on HEK293/hGnRHR cells were 13.0 fold and 6.7 fold, respectively. Further, the “DNA replication (thymidine incorporation) compared to untreated cells” value in the test with HEK293/rGnRHR cells [2] is recorded as “reduced DNA replication”. Besides, the “time after first treatment at which PARP cleavage (apoptosis) is manifest” value in [3] worked out at 24 h. Besides, in [4], the “inhibition of FSK-stimulated cAMP” value is reported as “did not detect”.
For “pGlu-His-Trp-Ser-Tyr-Gly-Leu-Arg-Pro-Gly.NH2 [GnRH I]”, the “fold more potent to activate PLCβ than GnRH II” value in the test with rat GnRH receptor is 4.7 fold. The “DNA replication (thymidine incorporation) compared to untreated cells” value with HEK293/rGnRHR cells [2] is “reduced DNA replication”. The “time after first treatment at which PARP cleavage (apoptosis) is manifest” value in test [3] is on record as “at least 48 h”. The “effect of GnRH I on cell growth of cell lines expressing the chimeras” value in [5] was “Addition of the C-terminal tails inhibited the effect”. Besides, the “inhibition of cell growth” value in [6] is listed as “did not inhibit the growth”. In test [7], the “duration of ERK activation” value was “more sustained in the cells expressing the receptors lacking the C-terminal tail”. In addition, in test [4], the “inhibition of FSK-stimulated cAMP” value is on record as “did not detect”.
